Measured values from PubChem BioAssay (NCI).
Values joined by “and” are separate entries in the source; they are usually repeats but may differ in a detail not shown here. Equal values may be shown once.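 In this assay, cells in 96-well plates receive the compound at five concentrations for 48 hours. Endpoints are linearly interpolated between the surrounding concentrations. Here, GI50 denotes the concentration required for 50% inhibition of growth. TGI marks complete inhibition of growth.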

system: MDA-MB-468 breast; test: NCI-60 cell line screen, 48 h

| SMILES | GI50 | TGI |
| --- | --- | --- |
| CCCCCCCC/C=C/CCCCCCCCC1=NCCN1CCO | 10.3 µM | 26.6 µM |
| CC(=O)N1CC(Nc2ccc(OC(F)(F)F)cc2)=CC1=O | 0.662 µM | 4.74 µM |
| ClC1=C(Cl)C(Cl)=C(Cl)C1=C/C=C/c1ccccc1 | 0.186 µM | 0.433 µM |
| CCCCCCCC/C=C/CCCCCCCC1=NCC[N+]1(CCO)CCO | 1.78 µM | 4.56 µM |
| COc1cc(NCCCCN=C(N)NC(N)=NC(C)C)c2ncccc2c1 | 0.106 µM | 0.435 µM |
| COc1cccc(C2C(C#N)=C(N)Oc3cc(N)ccc32)c1 (centres undefined) | 0.282 µM | 0.987 µM |
| CC1/C=C/C=C/C=C/C=C/C=C/C=C/C=C/C(O[C@@H]2O[C@H](C)[C@H](O)[C@@H](O)[C@@H]2N)CC(O)C(C(=O)O)C(O)CC(=O)CC(O)CC(O)CC(O)CC(=O)CCCC(=O)CC(=O)OC1C(C)CC(C)C(O)CC(=O)c1ccc(N)cc1 (some centres undefined) | 0.0492 µM and 0.223 µM | 0.0989 µM and 0.723 µM |
| CN(C)c1ccc(/C=C(/NC(=O)c2ccccc2)c2nc3ccc(Cl)cc3[nH]2)cc1 | 20.5 µM | 70.5 µM |
| CC(=O)c1ccc(NC(=O)CSc2nnc(-c3cc(-c4ccc(C)cc4)nc4ccccc34)o2)cc1 | 3.54 µM | > 100 µM |
| N#Cc1c(-c2ccc(Cl)cc2)n(O)c2ccccc12 | 1.63 µM | 4.71 µM |
| COc1ccccc1-n1c(-c2cc(O)ccc2C)cn2c3c(=O)[nH]c(=O)n(C)c3nc12 | 15.6 µM | > 100 µM |
| Cc1cccc(Oc2nccc(-c3c(-c4ccc(F)cc4)ncn3C3CCNCC3)n2)c1C | 2.95 µM | 6.46 µM |
| Cc1ccc(N2CCN(C3=C(Cl)C(=O)c4ncccc4C3=O)CC2)cc1 | 1.49 µM | 3.04 µM |
| CCOc1ccc([C@@H]2[C@@H](Oc3ccccc3)C(=O)N2c2cc(OC)c(OC)c(OC)c2)cc1 | 0.0459 µM | > 100 µM |
| CC(C)CCOc1ccc(-c2n[nH]c(C(F)(F)F)c2-c2cncc(C#N)c2)c(O)c1 | 1.01 µM | 4.83 µM |
| CS(=O)CCCCCN=C=S (centres undefined) | 2.68 µM | 9.94 µM |
| CCCCCCCCCCCCCCCCCC1=NCCN1CS(=O)(=O)O | 16.1 µM | 33.8 µM |
| CC(=O)Nc1ccc(Sc2ccc([N+](=O)[O-])o2)cc1 | 0.933 µM | 2.81 µM |
| C=C(C)[C@@H]1CC[C@]2(C)[C@H](C(=O)C=C3[C@@H]4C[C@](C)(C(=O)N5CCN(C)CC5)CC[C@]4(C)CC[C@]32C)[C@@]1(C)CCC#N | 5.92 µM | 13.2 µM |

| SMILES | GI50 | TGI |
| --- | --- | --- |
| COc1cc(C)c(-c2ccc(=O)c(OC)cc2C)c(OC)c1OC | > 100 µM and 14 µM | > 100 µM |
| CCC(C)n1cc(C)c2c(C(=O)NCc3c(C)cc(C)[nH]c3=O)cc(Br)cc21 (centres undefined) | 22.8 µM | > 100 µM |
| C=C1C[C@](OC)([C@H](O)C(=O)N[C@@H](OC)[C@@H]2C[C@@H](O)C(C)(C)[C@@H](C[C@@H](COC)OC)O2)O[C@H](C)[C@@H]1C | 0.000941 µM | 0.00348 µM |
| CC(C)[C@@]12C[C@@H](OC(=O)[C@H]3CO3)[C@@](C)(O1)[C@@H]1CC[C@@H](C)[C@H]1[C@@H]2OC(=O)/C=C/c1ccccc1 | 13.9 µM | 30.9 µM |
| CN1CCCNc2c(c(=O)c2=O)NCCCN(C)CCCNc2c(c(=O)c2=O)NCCCN(C)CCCNc2c(c(=O)c2=O)NCCCN(C)CCCNc2c(c(=O)c2=O)NCCCN(C)CCCNc2c(c(=O)c2=O)NCCCN(C)CCCNc2c(c(=O)c2=O)NCCCN(C)CCCNc2c(c(=O)c2=O)NCCC1 | 2 µM | 12 µM |
| NCCCNc1nc2ccccc2c2c(=O)c3cc(C(F)(F)F)ccc3sc12 | 1.53 µM | 2.99 µM |
| NC(=NCCCOc1ccc(Cl)cc1)Nc1ccc(Cl)cc1 | 1.71 µM | 3.78 µM |
| CC(C)(C)c1nc2c(o1)C(=O)c1ccccc1C2=O | 0.184 µM | 0.564 µM |
| COc1ccc(C(=O)c2ccc(OC)c(OC)c2OC)cc1 | 0.696 µM | 9.94 µM |
| Cc1nc2sccn2c(=O)c1CCN1CCC(=C(c2ccc(F)cc2)c2ccc(F)cc2)CC1 | 5.05 µM | 19 µM |
| O=[N+]([O-])c1ccc(-c2nc(-c3ccccc3)c(-c3ccccc3)n2-c2ccccc2)cc1 | 3.77 µM | 12.7 µM |
| Cc1cc2cc3cc(C)c(N(C)C)cc3nc2cc1N(C)C | 0.8 µM | 9.01 µM |
| COc1cc(/C=C/c2cc(/C=C/c3ccc(O)c(OC)c3)n(-c3c(C)cccc3C)c(=O)n2)ccc1O | 0.835 µM | 3.61 µM |
| COC(=O)c1ccc2c(c1)nc(-c1cc3ccccc3[nH]c1=O)n2-c1cc(C(C)(C)C)[nH]n1 | 13.7 µM | > 100 µM |
| COc1ccc(Nn2c(SCC(=O)Nc3nc(-c4ccc(Cl)cc4)cs3)nc(C)c2C)cc1 | 0.574 µM | 7.73 µM |
| NC(CSC(c1ccccc1)(c1ccccc1)c1ccc(Cl)cc1)C(=O)O (centres undefined) | 0.0819 µM | 4.18 µM |
| CCN(CC)CCCNc1cccc2c(SCc3ccccc3)ccnc12 | 1.88 µM | 3.43 µM |
| CCN(CC)c1cc(/C=C/c2ccc(OC)c(OC)c2)nc2cc(F)c(F)cc12 | 2.49 µM | 10.3 µM |
